Calls of active or inactive are those of the source.
Legend:
[1] = target: Neurotensin receptor type 1 (Homo sapiens, UniProt P30989); format: functional;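 further: Image-based confirmatory dose-response assay measuring agonist activity at NTR1; NTR1-expressing U2OS osteosarcoma cells imaged for beta-arrestin GFP spot formation; agonist potency where compounds increase beta-arrestin recruitment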
Melanocortin receptor 4 = Melanocortin receptor 4 (Homo sapiens, UniProt P32245); assay: MC4R antagonist potency on cAMP, dose response, cell-based, TR-FRET, biased antagonists (AID 602298); format: functional;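 further: antagonist potency against agonist-stimulated cAMP production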
[2] = nonselective inhibitors of cellular cAMP signaling, dose response, counter-screen for MC4R biased antagonist project, cell-based, TR-FRET cAMP detection (AID 602305); format: functional;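 further: U2OS cells stimulated with forskolin near its EC80 as the cAMP inducer; potency is for inhibition of forskolin-stimulated cAMP signaling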
HEK293 [3] = assay: NOD1 signaling inhibitors, primary screen, cell-based, luminescence, uHTS (AID 1578); format: functional; settings: Homo sapiens
HEK293 [4] = assay: cells; format: functional, cell-based; settings: Homo sapiens
HEK293 [5] = assay: cells; format: functional, cell-based; settings: Homo sapiens; remark: listed apart in the source
HEK293 [6] = assay: NOD2 signaling inhibitors in MDP-stimulated cells, cell-based, uHTS, luminescence (AID 2001); format: functional; settings: Homo sapiens
[7] = target: T1, Acyl-homoserine lactone acylase PvdQ (Pseudomonas aeruginosa (strain LESB58), UniProt Q9I194); assay: P. aeruginosa PvdQ acylase inhibitors, dose response, biochemical, fluorescence, plate reader and imaging, cherry-picks (AID 493231)
T1 sequence (Q9I194 whole entry): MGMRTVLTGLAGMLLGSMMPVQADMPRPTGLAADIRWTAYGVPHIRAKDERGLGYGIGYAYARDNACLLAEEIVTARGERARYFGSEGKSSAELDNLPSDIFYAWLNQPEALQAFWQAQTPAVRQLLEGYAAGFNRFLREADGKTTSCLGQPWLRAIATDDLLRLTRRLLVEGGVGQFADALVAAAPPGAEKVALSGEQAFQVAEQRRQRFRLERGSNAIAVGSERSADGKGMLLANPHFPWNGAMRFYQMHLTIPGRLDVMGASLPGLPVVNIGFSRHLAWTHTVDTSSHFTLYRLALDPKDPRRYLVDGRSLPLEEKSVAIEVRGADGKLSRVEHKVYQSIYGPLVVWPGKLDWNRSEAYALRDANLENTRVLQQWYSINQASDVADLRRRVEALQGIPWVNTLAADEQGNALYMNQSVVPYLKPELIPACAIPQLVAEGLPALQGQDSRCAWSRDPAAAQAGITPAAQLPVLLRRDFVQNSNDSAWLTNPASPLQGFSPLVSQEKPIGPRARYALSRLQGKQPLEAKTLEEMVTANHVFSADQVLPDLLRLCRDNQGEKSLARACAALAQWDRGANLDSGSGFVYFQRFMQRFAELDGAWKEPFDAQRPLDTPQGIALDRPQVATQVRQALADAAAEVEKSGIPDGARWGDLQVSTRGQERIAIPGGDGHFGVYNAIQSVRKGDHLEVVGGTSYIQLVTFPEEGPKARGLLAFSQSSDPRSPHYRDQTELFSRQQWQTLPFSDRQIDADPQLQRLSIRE

[8] = Luminescence Cell-Based Dose Retest to Confirm Inhibitors of Cancer Stem Cells. [Related pubchem assays (depositor defined):AID2717, AID2721]; format: functional; settings: Homo sapiens
Protein skinhead-1 = target: T2, Protein skinhead-1 (Caenorhabditis elegans, UniProt P34707); format: functional
T2 sequence (P34707 whole entry): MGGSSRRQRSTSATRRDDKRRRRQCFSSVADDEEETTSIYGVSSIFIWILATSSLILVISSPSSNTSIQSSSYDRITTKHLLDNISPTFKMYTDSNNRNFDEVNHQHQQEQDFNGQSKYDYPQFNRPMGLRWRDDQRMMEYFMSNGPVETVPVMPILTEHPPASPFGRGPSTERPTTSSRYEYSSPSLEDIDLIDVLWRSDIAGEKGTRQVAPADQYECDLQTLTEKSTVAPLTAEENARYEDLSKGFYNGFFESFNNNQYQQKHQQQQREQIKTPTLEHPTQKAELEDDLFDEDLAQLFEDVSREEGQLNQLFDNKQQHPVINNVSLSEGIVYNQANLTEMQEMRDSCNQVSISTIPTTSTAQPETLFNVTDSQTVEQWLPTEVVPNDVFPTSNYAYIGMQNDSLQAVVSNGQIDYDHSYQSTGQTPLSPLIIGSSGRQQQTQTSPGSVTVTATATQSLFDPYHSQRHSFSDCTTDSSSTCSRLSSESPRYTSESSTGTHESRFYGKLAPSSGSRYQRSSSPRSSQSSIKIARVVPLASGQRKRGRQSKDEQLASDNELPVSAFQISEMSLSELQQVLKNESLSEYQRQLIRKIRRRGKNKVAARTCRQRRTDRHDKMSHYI

Large T antigen = Large T antigen (Simian virus 40, UniProt P03070); format: functional, Betapolyomavirus macacae;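 further: Confirmatory-stage PubChem screen for compounds that inhibit SV40 T antigen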
[9] = target: Glucose-6-phosphate 1-dehydrogenase (Homo sapiens, UniProt P11413); assay: human G6PD enzyme inhibitors, dose response, selectivity assay for P. falciparum G6PD inhibitor project, biochemical, fluorescence (AID 504792); format: functional
[10] = target: T3, C-C chemokine receptor type 6 (Homo sapiens, UniProt P51684); assay: CCR6 receptor antagonists, dose response, cell-based, luminescent beta-arrestin readout (AID 504728); format: functional
T3 sequence (P51684 whole entry): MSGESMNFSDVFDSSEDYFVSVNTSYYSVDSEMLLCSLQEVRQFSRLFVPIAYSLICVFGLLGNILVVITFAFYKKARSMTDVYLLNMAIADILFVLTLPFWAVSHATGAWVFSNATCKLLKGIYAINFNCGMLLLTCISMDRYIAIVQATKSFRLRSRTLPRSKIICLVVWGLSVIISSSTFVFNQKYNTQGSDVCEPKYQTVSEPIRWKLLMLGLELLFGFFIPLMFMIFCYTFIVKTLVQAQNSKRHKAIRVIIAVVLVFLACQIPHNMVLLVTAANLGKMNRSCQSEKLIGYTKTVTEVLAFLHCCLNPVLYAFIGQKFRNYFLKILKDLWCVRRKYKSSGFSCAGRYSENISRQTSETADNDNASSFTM

Beta-galactosidase = Beta-galactosidase (Escherichia coli, UniProt Q8VNN2); assay: beta-galactosidase enzyme inhibitors and activators, dose response, artefact control for CCR6 antagonist project, biochemical, E. coli enzyme, set 3 (AID 504712); format: functional
[11] = target: DNA dC->dU-editing enzyme APOBEC-3A (Homo sapiens, UniProt P31941); assay: APOBEC3A DNA deaminase inhibitors, dose response, biochemical (AID 504722); format: functional
[12] = target: DNA dC->dU-editing enzyme APOBEC-3G (Homo sapiens, UniProt Q9HC16); assay: Dose Response confirmation of small molecule APOBEC3G DNA Deaminase Inhibitors via a fluorescence-based single-stranded DNA deaminase assay. [Related pubchem assays (depositor defined):AID493012, AID493028]; format: functional
[13] = target: Luciferin 4-monooxygenase (Photinus pyralis, UniProt P08659); assay: Counter Screen for Luciferase-based Assay Positives. [Related pubchem assays: 620, 618, 411 ]
[14] = target: Glyceraldehyde-3-phosphate dehydrogenase (Homo sapiens, UniProt P04406)
[15] = target: T4, Heat shock factor protein 1 (Mus musculus, UniProt P38532); assay: inhibition of MG132-induced HSE-luciferase signal, confirmation, cell-based, NIH3T3, luminescence, dose retest (AID 2382); format: functional;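 further: NIH3T3 fibroblasts with HSF1-driven luciferase reporter stressed by proteasome inhibitor MG132; luminescence from HSF1-driven luciferase expression after 8 hours of MG132 stress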
T4 sequence (P38532 whole entry): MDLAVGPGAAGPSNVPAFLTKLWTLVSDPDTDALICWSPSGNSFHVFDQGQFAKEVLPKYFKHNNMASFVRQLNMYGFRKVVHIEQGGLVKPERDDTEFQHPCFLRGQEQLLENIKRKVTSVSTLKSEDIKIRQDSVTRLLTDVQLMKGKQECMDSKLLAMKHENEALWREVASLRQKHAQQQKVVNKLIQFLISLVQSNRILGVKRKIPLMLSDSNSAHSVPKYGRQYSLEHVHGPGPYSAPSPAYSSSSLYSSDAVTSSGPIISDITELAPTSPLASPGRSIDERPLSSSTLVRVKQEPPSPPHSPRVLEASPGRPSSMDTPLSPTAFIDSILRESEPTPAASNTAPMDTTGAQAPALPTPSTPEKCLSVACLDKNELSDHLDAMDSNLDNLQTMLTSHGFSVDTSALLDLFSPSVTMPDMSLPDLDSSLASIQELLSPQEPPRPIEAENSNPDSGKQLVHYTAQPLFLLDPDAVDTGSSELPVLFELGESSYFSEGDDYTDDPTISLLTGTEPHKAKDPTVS

HT-1080 = assay: cytotoxicity in HT1080 fibrosarcoma cells, cell-based, fluorescence readout (AID 620); format: functional; settings: Homo sapiens
[16] = cytotoxicity in HEK-293T cells, dose response, cytotoxicity control for BCR NF-kB inhibitor project, luminescence, B-cell screen hits (AID 489021); format: functional, cell-based;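 further: HEK-293T cells carrying an NF-kB luciferase reporter; cells exposed to compound for about 14 hours before viability readout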
[17] = microbe, parasite or virus in culture; format: functional; settings: Mycobacterium tuberculosis
[18] = HepG2 cell cytotoxicity, dose response, cytotoxicity control, plate reader, cherry-pick, antagonist series (AID 743416); format: functional, cell-based
[19] = LGR2 antagonists, dose response, cell-based, HEK293, CRE-luciferase reporter, cherry pick, set 2 (AID 743343); format: functional;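 further: transfected cells were stimulated with diluted bursicon conditioned medium after compound addition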
[20] = MC4R antagonists, dose response, counter-screen for LGR2 antagonist project, cell-based, plate reader, cherry pick (AID 743444); format: functional;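 further: transfected HEK 293 cells stimulated with alpha-MSH peptide; potency of inhibitors of the alpha-MSH evoked signal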
[21] = HEK293 cell cytotoxicity, dose response, cytotoxicity control, plate reader, cherry-picked samples (AID 743446); format: functional, cell-based

Sequence of Luciferin 4-monooxygenase (P08659 whole entry): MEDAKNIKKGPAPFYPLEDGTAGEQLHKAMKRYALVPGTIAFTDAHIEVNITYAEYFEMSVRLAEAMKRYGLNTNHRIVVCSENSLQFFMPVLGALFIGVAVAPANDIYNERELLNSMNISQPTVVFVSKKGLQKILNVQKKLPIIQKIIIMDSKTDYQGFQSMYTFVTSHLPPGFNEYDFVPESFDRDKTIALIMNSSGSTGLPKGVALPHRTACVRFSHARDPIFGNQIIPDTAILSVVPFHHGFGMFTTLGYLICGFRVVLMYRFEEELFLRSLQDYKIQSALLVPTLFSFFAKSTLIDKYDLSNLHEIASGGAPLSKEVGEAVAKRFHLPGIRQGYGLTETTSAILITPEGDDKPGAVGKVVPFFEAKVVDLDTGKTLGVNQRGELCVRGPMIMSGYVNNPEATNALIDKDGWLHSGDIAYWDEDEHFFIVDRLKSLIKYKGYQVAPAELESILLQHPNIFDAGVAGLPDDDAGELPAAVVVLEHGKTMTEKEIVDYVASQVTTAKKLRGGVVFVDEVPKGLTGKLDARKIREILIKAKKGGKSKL
Sequence of Glucose-6-phosphate 1-dehydrogenase (P11413 whole entry): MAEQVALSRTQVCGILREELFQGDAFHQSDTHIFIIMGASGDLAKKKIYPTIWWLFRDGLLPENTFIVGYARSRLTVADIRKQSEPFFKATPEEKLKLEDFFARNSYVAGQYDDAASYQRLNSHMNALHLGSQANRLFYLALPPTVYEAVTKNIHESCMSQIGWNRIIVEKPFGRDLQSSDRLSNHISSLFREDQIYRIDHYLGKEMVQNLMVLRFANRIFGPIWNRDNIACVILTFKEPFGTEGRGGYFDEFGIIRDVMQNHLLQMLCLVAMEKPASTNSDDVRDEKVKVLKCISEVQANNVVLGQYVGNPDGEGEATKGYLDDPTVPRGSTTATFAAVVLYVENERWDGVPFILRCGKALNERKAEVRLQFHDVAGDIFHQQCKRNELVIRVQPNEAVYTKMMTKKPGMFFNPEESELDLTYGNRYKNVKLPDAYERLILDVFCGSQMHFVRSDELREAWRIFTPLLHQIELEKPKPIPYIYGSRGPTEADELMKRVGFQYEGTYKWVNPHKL
Sequence of Melanocortin receptor 4 (P32245 whole entry): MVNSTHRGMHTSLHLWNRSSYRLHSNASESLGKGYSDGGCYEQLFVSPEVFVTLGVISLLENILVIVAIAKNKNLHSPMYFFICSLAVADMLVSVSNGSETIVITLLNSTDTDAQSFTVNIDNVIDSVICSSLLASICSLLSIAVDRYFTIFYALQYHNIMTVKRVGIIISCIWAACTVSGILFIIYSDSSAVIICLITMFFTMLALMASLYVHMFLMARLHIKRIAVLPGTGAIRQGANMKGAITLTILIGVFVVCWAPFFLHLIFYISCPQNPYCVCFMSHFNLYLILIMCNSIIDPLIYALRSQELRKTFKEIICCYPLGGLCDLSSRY
Sequence of Neurotensin receptor type 1 (P30989 whole entry): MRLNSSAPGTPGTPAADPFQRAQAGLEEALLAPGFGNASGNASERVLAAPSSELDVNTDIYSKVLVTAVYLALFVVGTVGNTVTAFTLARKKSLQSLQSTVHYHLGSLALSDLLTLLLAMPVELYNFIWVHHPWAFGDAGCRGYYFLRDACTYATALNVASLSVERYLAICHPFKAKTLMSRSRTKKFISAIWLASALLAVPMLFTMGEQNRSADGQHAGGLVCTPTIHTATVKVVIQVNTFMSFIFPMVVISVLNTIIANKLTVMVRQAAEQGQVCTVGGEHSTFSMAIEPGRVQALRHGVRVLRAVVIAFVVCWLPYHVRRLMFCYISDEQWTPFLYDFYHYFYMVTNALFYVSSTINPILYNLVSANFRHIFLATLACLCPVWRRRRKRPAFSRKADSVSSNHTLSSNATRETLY
Sequence of Glyceraldehyde-3-phosphate dehydrogenase (P04406 whole entry): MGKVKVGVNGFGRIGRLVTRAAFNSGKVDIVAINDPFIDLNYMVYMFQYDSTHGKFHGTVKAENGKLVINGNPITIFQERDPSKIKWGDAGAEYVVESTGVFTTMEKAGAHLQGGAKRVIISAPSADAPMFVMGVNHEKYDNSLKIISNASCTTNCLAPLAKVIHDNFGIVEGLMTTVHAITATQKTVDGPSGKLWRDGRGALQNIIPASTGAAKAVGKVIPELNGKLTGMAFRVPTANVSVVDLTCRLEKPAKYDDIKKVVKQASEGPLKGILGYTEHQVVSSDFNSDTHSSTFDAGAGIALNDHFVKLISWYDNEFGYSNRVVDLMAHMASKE
Sequence of DNA dC->dU-editing enzyme APOBEC-3A (P31941 whole entry): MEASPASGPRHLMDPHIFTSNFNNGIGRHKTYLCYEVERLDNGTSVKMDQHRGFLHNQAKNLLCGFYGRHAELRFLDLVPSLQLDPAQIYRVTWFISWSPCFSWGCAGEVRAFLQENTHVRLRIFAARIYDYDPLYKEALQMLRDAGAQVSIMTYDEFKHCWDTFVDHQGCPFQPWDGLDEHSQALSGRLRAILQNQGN
Sequence of Large T antigen (P03070 whole entry): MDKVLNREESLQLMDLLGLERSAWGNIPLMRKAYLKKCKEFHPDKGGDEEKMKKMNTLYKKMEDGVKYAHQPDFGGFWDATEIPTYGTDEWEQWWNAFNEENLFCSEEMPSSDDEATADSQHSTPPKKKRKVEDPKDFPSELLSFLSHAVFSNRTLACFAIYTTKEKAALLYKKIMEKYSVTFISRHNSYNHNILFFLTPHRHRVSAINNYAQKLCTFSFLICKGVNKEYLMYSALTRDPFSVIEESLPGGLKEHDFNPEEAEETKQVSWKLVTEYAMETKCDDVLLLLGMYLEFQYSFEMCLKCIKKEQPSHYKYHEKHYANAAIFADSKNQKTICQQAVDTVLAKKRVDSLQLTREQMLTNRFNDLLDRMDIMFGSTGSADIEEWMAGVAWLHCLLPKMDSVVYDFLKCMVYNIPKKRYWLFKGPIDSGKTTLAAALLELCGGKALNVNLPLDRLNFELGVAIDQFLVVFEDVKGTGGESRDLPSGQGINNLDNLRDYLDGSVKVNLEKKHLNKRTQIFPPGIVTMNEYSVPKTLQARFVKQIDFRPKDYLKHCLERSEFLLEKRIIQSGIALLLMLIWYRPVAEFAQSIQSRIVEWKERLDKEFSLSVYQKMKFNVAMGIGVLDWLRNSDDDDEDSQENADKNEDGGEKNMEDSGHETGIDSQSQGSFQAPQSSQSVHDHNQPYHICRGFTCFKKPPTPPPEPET
Sequence of DNA dC->dU-editing enzyme APOBEC-3G (Q9HC16 whole entry): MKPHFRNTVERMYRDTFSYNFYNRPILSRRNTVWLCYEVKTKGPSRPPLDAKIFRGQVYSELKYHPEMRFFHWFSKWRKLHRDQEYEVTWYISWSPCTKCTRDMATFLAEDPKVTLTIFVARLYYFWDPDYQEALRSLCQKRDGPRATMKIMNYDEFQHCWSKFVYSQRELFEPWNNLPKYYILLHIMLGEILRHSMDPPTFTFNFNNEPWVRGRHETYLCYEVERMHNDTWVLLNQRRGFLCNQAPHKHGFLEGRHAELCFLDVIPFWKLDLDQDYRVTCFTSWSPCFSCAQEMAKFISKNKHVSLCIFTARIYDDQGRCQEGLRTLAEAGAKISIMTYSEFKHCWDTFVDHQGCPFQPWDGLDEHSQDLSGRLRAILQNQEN
Sequence of Beta-galactosidase (Q8VNN2 whole entry): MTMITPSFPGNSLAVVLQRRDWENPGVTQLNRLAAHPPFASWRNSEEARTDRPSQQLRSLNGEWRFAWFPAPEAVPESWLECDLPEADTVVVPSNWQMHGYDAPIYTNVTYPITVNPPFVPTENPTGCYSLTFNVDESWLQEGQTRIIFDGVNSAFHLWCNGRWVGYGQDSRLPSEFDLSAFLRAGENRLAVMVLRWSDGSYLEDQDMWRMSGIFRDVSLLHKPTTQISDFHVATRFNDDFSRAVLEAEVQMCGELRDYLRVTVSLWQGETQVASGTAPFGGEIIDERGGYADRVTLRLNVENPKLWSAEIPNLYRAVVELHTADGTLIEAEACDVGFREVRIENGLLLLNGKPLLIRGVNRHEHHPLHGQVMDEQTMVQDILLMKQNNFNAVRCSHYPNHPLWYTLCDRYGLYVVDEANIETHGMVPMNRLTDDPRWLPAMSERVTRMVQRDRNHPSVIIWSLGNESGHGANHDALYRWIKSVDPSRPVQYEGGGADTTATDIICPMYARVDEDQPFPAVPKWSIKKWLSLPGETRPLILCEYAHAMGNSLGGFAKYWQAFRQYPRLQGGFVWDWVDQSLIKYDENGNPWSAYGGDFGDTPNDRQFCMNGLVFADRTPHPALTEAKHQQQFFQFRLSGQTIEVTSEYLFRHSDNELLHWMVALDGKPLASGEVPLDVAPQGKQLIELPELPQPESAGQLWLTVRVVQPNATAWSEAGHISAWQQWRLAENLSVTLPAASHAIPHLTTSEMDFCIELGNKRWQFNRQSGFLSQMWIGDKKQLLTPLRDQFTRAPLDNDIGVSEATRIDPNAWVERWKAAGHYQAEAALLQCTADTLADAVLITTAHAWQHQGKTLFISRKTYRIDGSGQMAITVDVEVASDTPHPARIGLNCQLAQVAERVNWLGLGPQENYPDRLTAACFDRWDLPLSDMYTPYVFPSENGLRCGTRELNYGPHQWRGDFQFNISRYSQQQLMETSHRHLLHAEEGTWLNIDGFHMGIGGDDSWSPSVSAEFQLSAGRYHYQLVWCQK

For `CCCOc1ccc(C(=O)c2ccccc2C(=O)OC2CCOC2=O)cc1OCCC` (stereo not drawn), the EC50 [1] was 19.8 µM (active), the IC50 (Melanocortin receptor 4) was > 64.6 µM (inactive) and the IC50 [2] was > 64.6 µM (inactive).
For `Clc1ccc(Nc2ncnc3ccc(Br)cc23)cc1`, the EC50 (HEK293 [3]) was 3.06 µM (active), the IC50 (HEK293 [4]) was 0.95 µM (active) and the IC50 (HEK293 [5]) was > 20 µM (inactive). For the same molecule, the IC50 (HEK293 [6]) was 1.47 µM (active), the AC50 [7] was 37.8 µM (active) and the AC50 [8] was 4.4 µM (active). The IC50 (Protein skinhead-1) was > 100 µM (inactive).
In the case of `COc1ccccc1N1C(=O)C=C(Sc2nc(C)cc(C)n2)C1=O`, the IC50 (Large T antigen) was 24.3 µM (active), the IC50 [9] was > 80 µM (inactive) and the IC50 [10] was > 66.6 µM (inactive). The IC50 (Beta-galactosidase) was > 66.6 µM (inactive).
For `Sc1cnc2ccccc2n1`, the IC50 [11] was > 100 µM (inactive) and the IC50 [12] was 7.85 µM (active).
For `O=C(O)CCSc1nc2ccccc2s1`, the EC50 [13] was > 100 µM (not active), the IC50 [14] was > 100 µM (not active) and the EC50 [15] was 6.83 µM (active). For the same molecule, the EC50 (HT-1080) was > 50 µM (not active) and the IC50 [16] was > 80 µM (inactive).
For `CC(C)(C)c1ccc(-c2nc(-c3ccncc3)no2)cc1`, the EC50 [13] was 0.57 µM (active), the CC50 [17] was 34.2 µM (active) and the EC50 (HT-1080) was > 50 µM (not active). The AC50 [18] was 30.1 µM (active), the AC50 [19] was 12.9 µM (active) and the AC50 [20] was 20.8 µM (active). The AC50 [21] was > 52 µM (inactive).

From ChEMBL document CHEMBL1201862, “PubChem BioAssay data set” (2004)
